Measured values published in ChEMBL document CHEMBL4706485, “Development of cell-permeable peptide-based PROTACs targeting estrogen receptor α” (Eur J Med Chem, 2020).
One block for each molecule: values may come before it. Activity calls are given as the source filed them. The calls are words filed in the database; no cut-off is given here. Square brackets hold non-standard residues; d marks the D form. Peptide text beside a SMILES is read from it. Hyp = O=C(O)[C@@H]1C[C@@H](O)CN1; Ahx = NCCCCCC(=O)O

Tests used:
MCF7 [1] = experiment: Induction of apoptosis in human MCF7 cells assessed as viable cells at 10 uM after 12 hrs by annexinV-FITC/PI staining based flow cytometric analysis (reference value: 95.4 to 97.6%); assay type: functional; settings: read-out: Activity
[2] = Drug uptake in human MCF7 cells at 10 uM FITC labelled form of compound after 12 hrs by flow cytometric analysis; assay type: ADME, cell-based; settings: mcf7, 12 h
[3] = molecular target: T1, von Hippel-Lindau disease tumor suppressor/Estrogen receptor (Homo sapiens) (UniProt P03372+P40337); experiment: Protac activity at VHL/ERalpha in human MCF7 cells assessed as degradation of ERalpha protein level at 10 uM after 12 hrs by Western blot analysis; assay type: cell-based
T1 sequence (P03372 whole entry, looked up): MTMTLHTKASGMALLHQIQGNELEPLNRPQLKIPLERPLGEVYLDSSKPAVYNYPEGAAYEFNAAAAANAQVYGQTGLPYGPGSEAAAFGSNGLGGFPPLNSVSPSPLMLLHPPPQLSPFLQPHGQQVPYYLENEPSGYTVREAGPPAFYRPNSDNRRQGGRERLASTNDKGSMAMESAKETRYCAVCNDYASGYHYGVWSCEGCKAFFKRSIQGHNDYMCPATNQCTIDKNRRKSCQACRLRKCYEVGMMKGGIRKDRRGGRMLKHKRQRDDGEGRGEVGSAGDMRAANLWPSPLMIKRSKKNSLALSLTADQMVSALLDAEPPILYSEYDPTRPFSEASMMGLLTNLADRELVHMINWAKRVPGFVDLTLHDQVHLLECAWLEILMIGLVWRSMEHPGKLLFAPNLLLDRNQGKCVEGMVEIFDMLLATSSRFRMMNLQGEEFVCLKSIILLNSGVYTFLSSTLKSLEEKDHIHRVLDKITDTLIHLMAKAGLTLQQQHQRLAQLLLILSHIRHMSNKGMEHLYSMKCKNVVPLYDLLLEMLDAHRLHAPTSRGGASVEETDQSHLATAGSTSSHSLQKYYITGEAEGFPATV
T1 sequence (P40337 whole entry, looked up): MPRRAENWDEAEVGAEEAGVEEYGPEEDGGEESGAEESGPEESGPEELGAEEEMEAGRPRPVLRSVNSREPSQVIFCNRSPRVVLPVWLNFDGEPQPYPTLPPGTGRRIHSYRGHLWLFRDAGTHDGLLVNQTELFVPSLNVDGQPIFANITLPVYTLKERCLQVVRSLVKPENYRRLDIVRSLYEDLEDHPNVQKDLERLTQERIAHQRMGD

MCF7 [4] = experiment: Induction of apoptosis in human MCF7 cells assessed as late apoptotic cells at 10 uM after 12 hrs by annexinV-FITC/PI staining based flow cytometric analysis (reference value: 0.9 to 1.9%); assay type: functional
MCF7 [5] = experiment: Induction of apoptosis in human MCF7 cells assessed as necrotic cells at 10 uM after 12 hrs by annexinV-FITC/PI staining based flow cytometric analysis (reference value: 0.7 to 1.1%); assay type: functional
MCF7 [6] = experiment: Induction of apoptosis in human MCF7 cells assessed as early apoptotic cells at 10 uM after 12 hrs by annexinV-FITC/PI staining based flow cytometric analysis (reference value: 0.8 to 1.6%); assay type: functional
MCF7 [7] = experiment: Cytotoxicity against human MCF7 cells assessed as reduction in cell viability at 5 to 80 uM after 48 hrs by MTT assay; assay type: functional, cell-based; settings: dose 5-80 µM
MCF7 [8] = experiment: Induction of apoptosis in human MCF7 cells assessed as necrotic cells at 20 uM after 12 hrs by annexinV-FITC/PI staining based flow cytometric analysis (reference value: 0.7 to 1.1%); assay type: functional
MCF7 [9] = experiment: Induction of apoptosis in human MCF7 cells assessed as necrotic cells at 5 uM after 12 hrs by annexinV-FITC/PI staining based flow cytometric analysis (reference value: 0.7 to 1.1%); assay type: functional
[10] = molecular target: T1, von Hippel-Lindau disease tumor suppressor/Estrogen receptor (Homo sapiens); experiment: Protac activity at VHL/ERalpha in human MCF7 cells assessed as increase in ubiquitinated-ERalpha at 10 uM after 6 hrs in presence of MG-132 by Western blot analysis; assay type: cell-based
[11] = molecular target: von Hippel-Lindau disease tumor suppressor/Progesterone receptor (Homo sapiens) (UniProt P06401+P40337); experiment: Protac activity at VHL/PR in human MCF7 cells assessed as degradation of PR protein level at 10 uM after 12 hrs by Western blot analysis; assay type: cell-based
Sequence of von Hippel-Lindau disease tumor suppressor/Progesterone receptor (Homo sapiens) (P06401 whole entry, looked up): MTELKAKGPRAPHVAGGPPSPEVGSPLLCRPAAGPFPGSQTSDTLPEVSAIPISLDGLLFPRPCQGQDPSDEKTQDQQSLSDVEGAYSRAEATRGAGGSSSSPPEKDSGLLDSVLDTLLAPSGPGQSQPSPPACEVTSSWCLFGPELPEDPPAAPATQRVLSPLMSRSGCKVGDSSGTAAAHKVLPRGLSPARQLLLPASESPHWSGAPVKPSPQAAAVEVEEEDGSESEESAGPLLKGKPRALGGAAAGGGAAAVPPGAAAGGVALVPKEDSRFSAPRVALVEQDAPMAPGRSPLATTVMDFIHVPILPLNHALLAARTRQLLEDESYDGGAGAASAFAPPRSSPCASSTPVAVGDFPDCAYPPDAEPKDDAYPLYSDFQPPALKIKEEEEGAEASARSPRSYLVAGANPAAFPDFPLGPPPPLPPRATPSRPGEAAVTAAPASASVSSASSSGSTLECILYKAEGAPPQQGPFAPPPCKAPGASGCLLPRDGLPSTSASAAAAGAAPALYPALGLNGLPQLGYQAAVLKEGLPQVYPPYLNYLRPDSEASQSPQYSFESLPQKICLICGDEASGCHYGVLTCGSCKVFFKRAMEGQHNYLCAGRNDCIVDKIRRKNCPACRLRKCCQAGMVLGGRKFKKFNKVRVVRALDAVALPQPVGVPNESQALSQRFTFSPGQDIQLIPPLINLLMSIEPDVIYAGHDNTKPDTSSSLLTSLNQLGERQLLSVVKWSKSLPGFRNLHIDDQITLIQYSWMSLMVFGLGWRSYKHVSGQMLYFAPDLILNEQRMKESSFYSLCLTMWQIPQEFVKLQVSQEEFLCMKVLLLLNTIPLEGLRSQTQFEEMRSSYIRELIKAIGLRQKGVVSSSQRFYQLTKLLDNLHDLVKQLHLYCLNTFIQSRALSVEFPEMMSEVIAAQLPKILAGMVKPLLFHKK
Sequence of von Hippel-Lindau disease tumor suppressor/Progesterone receptor (Homo sapiens) (P40337 whole entry, looked up): as the sequence (P40337 whole entry, looked up) above

MCF7 [12] = experiment: Cytotoxicity against human MCF7 cells assessed as reduction in cell viability after 48 hrs by MTT assay; assay type: functional, cell-based
[13] = molecular target: von Hippel-Lindau disease tumor suppressor/Vitamin D3 receptor (Homo sapiens) (UniProt P11473+P40337); experiment: Protac activity at VHL/VDR in human MCF7 cells assessed as degradation of VDR protein level at 10 uM after 12 hrs by Western blot analysis; assay type: cell-based
Sequence of von Hippel-Lindau disease tumor suppressor/Vitamin D3 receptor (Homo sapiens) (P11473 whole entry, looked up): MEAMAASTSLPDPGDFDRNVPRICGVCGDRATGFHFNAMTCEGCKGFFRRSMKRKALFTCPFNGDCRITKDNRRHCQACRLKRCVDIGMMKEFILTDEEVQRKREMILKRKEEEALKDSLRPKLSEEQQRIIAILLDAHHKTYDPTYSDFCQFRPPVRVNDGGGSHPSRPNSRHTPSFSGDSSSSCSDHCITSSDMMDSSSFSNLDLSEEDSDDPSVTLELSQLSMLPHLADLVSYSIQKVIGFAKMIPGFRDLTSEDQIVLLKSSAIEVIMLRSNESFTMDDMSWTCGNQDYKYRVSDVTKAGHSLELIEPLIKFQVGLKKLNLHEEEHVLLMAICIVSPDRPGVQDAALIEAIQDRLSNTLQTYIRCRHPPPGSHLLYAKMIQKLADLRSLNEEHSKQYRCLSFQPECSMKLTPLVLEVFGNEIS
Sequence of von Hippel-Lindau disease tumor suppressor/Vitamin D3 receptor (Homo sapiens) (P40337 whole entry, looked up): as the sequence (P40337 whole entry, looked up) above

[14] = Drug uptake in human MCF7 cells at 10 uM FITC labelled form of compound after 3 hrs by Hoechst 33258 staining based fluorescence microscopic analysis; assay type: ADME, cell-based; settings: mcf7, 3 h
HUVEC = experiment: Cytotoxicity against human HUVEC cells assessed as reduction in cell viability at 5 to 80 uM after 48 hrs by MTT assay; assay type: cell-based; settings: dose 5-80 µM
MCF7 [15] = experiment: Induction of apoptosis in human MCF7 cells assessed as early apoptotic cells at 20 uM after 12 hrs by annexinV-FITC/PI staining based flow cytometric analysis (reference value: 0.8 to 1.6%); assay type: functional
MCF7 [16] = experiment: Induction of apoptosis in human MCF7 cells assessed as early apoptotic cells at 5 uM after 12 hrs by annexinV-FITC/PI staining based flow cytometric analysis (reference value: 0.8 to 1.6%); assay type: functional
4T1 = experiment: Antitumour activity against mouse 4T1 cells implanted in BALB/c mouse assessed as inhibition in tumor growth at 10 umol/kg administered peri-tumor injection for 21 days relative to control; assay type: functional; settings: 4T1, 504 h, time 21 day, read-out: TGI
MCF7 [17] = experiment: Induction of apoptosis in human MCF7 cells assessed as late apoptotic cells at 20 uM after 12 hrs by annexinV-FITC/PI staining based flow cytometric analysis (reference value: 0.9 to 1.9%); assay type: functional
MCF7 [18] = experiment: Induction of apoptosis in human MCF7 cells assessed as late apoptotic cells at 5 uM after 12 hrs by annexinV-FITC/PI staining based flow cytometric analysis (reference value: 0.9 to 1.9%); assay type: functional
MCF7 [19] = experiment: Induction of apoptosis in human MCF7 cells assessed as increase in necrotic cells after 12 hrs by annexinV-FITC/PI staining based flow cytometric analysis; assay type: functional, cell-based; settings: dose 5-20 µM
MCF7 [20] = experiment: Induction of apoptosis in human MCF7 cells assessed as viable cells at 20 uM after 12 hrs by annexinV-FITC/PI staining based flow cytometric analysis (reference value: 95.4 to 97.6%); assay type: functional; settings: read-out: Activity
MDA-MB-231 = experiment: Cytotoxicity against human MDA-MB-231 cells assessed as reduction in cell viability at 5 to 80 uM after 48 hrs by MTT assay; assay type: functional, cell-based; settings: dose 5-80 µM
[21] = Drug uptake in human MCF7 cells FITC labelled form of compound by flow cytometric analysis; assay type: ADME, cell-based; settings: dose lower 2 µM, time lower 2 hrs, dose upper 16 µM, time upper 24 hrs
MCF7 [22] = experiment: Induction of apoptosis in human MCF7 cells assessed as viable cells at 5 uM after 12 hrs by annexinV-FITC/PI staining based flow cytometric analysis (reference value: 95.4 to 97.6%); assay type: functional; settings: read-out: Activity
A2780 = experiment: Cytotoxicity against human A2780 cells assessed as reduction in cell viability at 5 to 80 uM after 48 hrs by MTT assay; assay type: functional, cell-based; settings: dose 5-80 µM
[23] = molecular target: T1, von Hippel-Lindau disease tumor suppressor/Estrogen receptor (Homo sapiens); experiment: Protac activity at VHL/ERalpha in human A2780 cells assessed as degradation of ERalpha protein level at 10 uM after 12 hrs by Western blot analysis; assay type: cell-based
[24] = Toxicity in BALB/c mouse implanted with mouse 4T1 cells assessed as change in body weight at 10 umol/kg administered peri-tumor injection for 21 days; settings: in vivo, other, 504 h, dose 10 µmol/kg, time 21 day
MCF7 [25] = experiment: Induction of apoptosis in human MCF7 cells assessed as increase in late apoptotic cells after 12 hrs by annexinV-FITC/PI staining based flow cytometric analysis; assay type: functional, cell-based; settings: dose 5-20 µM
MCF7 [26] = experiment: Cytotoxicity against human MCF7 cells assessed as reduction in cell viability at 20 uM after 48 hrs by MTT assay; assay type: functional, cell-based

SMILES: CC[C@H](C)[C@H](NC(=O)[C@H](Cc1ccc(O)cc1)NC(=O)[C@@H]1C[C@@H](O)CN1C(=O)[C@H](C)NC(=O)[C@H](CC(C)C)NC(=O)CCCCCNC(=O)[C@H](CCC(N)=O)NC(=O)C(CC(C)(C)C)NC(=O)[C@H](CC(C)C)NC(=O)[C@H](CCCNC(=N)N)NC(=O)[C@@H]1CNC(=O)C(N[C@@H](CCCNC(=N)N)C(N)=O)CC(=O)N[C@@H]([C@@H](C)CC)C(=O)N[C@@H](CC(C)C)C(=O)N1)C(N)=O (some centres undefined)
- viability at 10 µM (MCF7 [1]): 76.7%
- Drug uptake [2]: Active
- Activity [3]: Active
- Activity (MCF7 [4]): 7.7%
- Activity (MCF7 [5]): 15.2%
- Activity (MCF7 [6]): 0.4%
- Activity (MCF7 [7]): Active

SMILES: CC[C@H](C)[C@H](NC(=O)[C@H](Cc1ccc(O)cc1)NC(=O)[C@@H]1C[C@@H](O)CN1C(=O)[C@H](C)NC(=O)[C@H](CC(C)C)NC(=O)CCCCCNC(=O)[C@H](CCC(N)=O)NC(=O)C(CC(C)(C)C)NC(=O)C(CC(C)(C)C)NC(=O)[C@H](CCCNC(=N)N)NC(=O)[C@@H]1CNC(=O)C(N[C@@H](CCCNC(=N)N)C(N)=O)CC(=O)N[C@@H]([C@@H](C)CC)C(=O)NC(CC(C)(C)C)C(=O)N1)C(N)=O (some centres undefined)
- viability at 10 µM (MCF7 [1]): 59.5%
- Activity (MCF7 [8]): 44.6%
- Drug uptake [2]: Active
- Activity (MCF7 [9]): 5.5%
- Activity [10]: Active
- Activity [11]: inactive
- Activity (MCF7 [12]): Dose-dependent effect
- IC50 (MCF7 [12]; MCF7, 48 h): 9.7 µM
- Activity [13]: inactive
- Drug uptake [14]: Active
- Activity [3]: Active
- Activity (MCF7 [4]): 13.6%
- Activity (MCF7 [5]): 26.2%
- Activity (HUVEC): Non-Toxic
- Activity (MCF7 [6]): 0.7%
- Activity (MCF7 [15]): 0.4%
- Activity (MCF7 [16]): 1.3%
- Activity (MCF7 [7]): Active
- inhibition in vivo at 10 µmol/kg (4T1): 67%
- Activity (MCF7 [17]): 26.2%
- Activity (MCF7 [18]): 6%
- Activity (MCF7 [19]): Dose-dependent effect
- viability at 20 µM (MCF7 [20]): 28.8%
- Activity (MDA-MB-231): Active
- Drug uptake [21]: Dose-dependent effect and Tde
- viability at 5 µM (MCF7 [22]): 87.2%
- Activity (A2780): Active
- Activity [23]: Active
- Activity [24]: Non-Toxic
- Activity (MCF7 [25]): Dose-dependent effect

SMILES: CC/C(=C(\c1ccccc1)c1ccc(OCCN(C)C)cc1)c1ccccc1 [TAMOXIFEN]
- Activity (MCF7 [7]): Active
- inhibition in vivo at 10 µmol/kg (4T1): 36%

The next lines start with results.

- Drug uptake [2]: Active
- Activity [3]: Active
SMILES: CC[C@H](C)[C@H](NC(=O)[C@H](Cc1ccc(O)cc1)NC(=O)[C@@H]1C[C@@H](O)CN1C(=O)[C@H](C)NC(=O)[C@H](CC(C)C)NC(=O)CCCCCNC(=O)[C@H](CCC(N)=O)NC(=O)[C@H](CC(C)C)NC(=O)[C@H](CC(C)C)NC(=O)[C@H](CCCNC(=N)N)NC(=O)[C@@H]1CNC(=O)C(N[C@@H](CCCNC(=N)N)C(N)=O)CC(=O)N[C@@H]([C@@H](C)CC)C(=O)NC(CC(C)(C)C)C(=O)N1)C(N)=O (some centres undefined)
- viability at 10 µM (MCF7 [1]): 80.2%
- Activity (MCF7 [4]): 7.1%
- Activity (MCF7 [5]): 11.9%
- Activity (MCF7 [6]): 0.7%
- Activity (MCF7 [7]): Active

- Drug uptake [2]: Active
- Activity [3]: Active
SMILES: CC[C@H](C)[C@H](NC(=O)[C@H](Cc1ccc(O)cc1)NC(=O)[C@@H]1C[C@@H](O)CN1C(=O)[C@H](C)NC(=O)[C@H](CC(C)C)NC(=O)CCCCCNC(=O)[C@H](CCC(N)=O)NC(=O)[C@H](CC(C)C)NC(=O)C(CC(C)(C)C)NC(=O)[C@H](CCCNC(=N)N)NC(=O)[C@@H]1CNC(=O)C(N[C@@H](CCCNC(=N)N)C(N)=O)CC(=O)N[C@@H]([C@@H](C)CC)C(=O)N[C@@H](CC(C)C)C(=O)N1)C(N)=O (some centres undefined)
- viability at 10 µM (MCF7 [1]): 78.5%
- Activity (MCF7 [4]): 7.9%
- Activity (MCF7 [5]): 12.7%
- Activity (MCF7 [6]): 0.9%
- Activity (MCF7 [7]): Active

- Drug uptake [2]: Active
- Activity [3]: Active
SMILES: CC[C@H](C)[C@H](NC(=O)[C@H](Cc1ccc(O)cc1)NC(=O)[C@@H]1C[C@@H](O)CN1C(=O)[C@H](C)NC(=O)[C@H](CC(C)C)NC(=O)CCCCCNC(=O)[C@H](CCC(N)=O)NC(=O)[C@H](CC(C)C)NC(=O)[C@H](CC(C)C)NC(=O)[C@H](CCCNC(=N)N)NC(=O)[C@@H]1CNC(=O)C(N[C@@H](CCCNC(=N)N)C(N)=O)CC(=O)N[C@@H]([C@@H](C)CC)C(=O)N[C@@H](CC(C)C)C(=O)N1)C(N)=O (some centres undefined)
- viability at 10 µM (MCF7 [1]): 85%
- Activity (MCF7 [4]): 5.8%
- Activity (MCF7 [5]): 8%
- Activity (MCF7 [6]): 1.3%
- Activity (MCF7 [7]): Active
- inhibition in vivo at 10 µmol/kg (4T1): 52%
- Activity [24]: Non-Toxic

- Drug uptake [2]: Active
- Activity [3]: Active
SMILES: CC[C@H](C)[C@H](NC(=O)[C@H](Cc1ccc(O)cc1)NC(=O)[C@@H]1C[C@@H](O)CN1C(=O)[C@H](C)NC(=O)[C@H](CC(C)C)NC(=O)CCCCCNC(=O)[C@H](CCC(N)=O)NC(=O)[C@H](CC(C)C)NC(=O)[C@H](CC(C)C)NC(=O)[C@H](CCCNC(=N)N)NC(=O)[C@H](Cc1c[nH]cn1)NC(=O)[C@H](CC(C)C)NC(=O)[C@@H](NC(=O)[C@H](CCCCN)NC(=O)[C@@H](N)Cc1c[nH]cn1)[C@@H](C)CC)C(N)=O (H-HKILHRLLQ[Ahx]LA[Hyp]YI-NH2)
- viability at 10 µM (MCF7 [1]): 93.4%
- Activity (MCF7 [4]): 2.7%
- Activity (MCF7 [5]): 2.9%
- Activity (MCF7 [26]): Active
- Activity (MCF7 [6]): 0.9%
